Key:
[1] = Antioxidant power on a polyvinyl chloride resin, GARDNER method, 185° C.
[2] = Comparison with stabilizer G1, rigid co-polymer (12.5 to 13.5% of acetate), 0.5 part, 185° C.
Excerpt: Another comparison was made with the following rigid co-polymer: […]

[3] = Antioxidant power on a polyvinyl chloride resin, GARDNER method, 185° C.; remark: listed apart in the source
Protocol: (§1) By direct comparison, on a polyvinyl chloride resin, of the antioxidant power of Compound 1 of the invention and that of an antioxidant known as one of the most valuable and frequently used in polyvinyl chloride, namely 2,6-diterbutyl-4-methyl-phenol.
(§2) The antioxidant power of Compound 1 was compared to that of 2,6-diterbutyl-4-methyl-phenol (Compound 2) by using the following resin:
The study was carried out according to the GARDNER method, the samples being removed from an oven at 185° C. every 10 minutes over a period of 80 minutes.
The signs + and - have the same meanings as in the previous table and > 2 means that the coloration lies between 2 and 2+.

[4] = Thermostability, rigid co-polymer (e), ventilated oven 210° C.; conditions: 0.3 part
Protocol: (§3) The study of the static thermostability of vinyl co-polymers was carried out according to the GARDNER method described above and, also in a more detailed manner in British Patent No. 1,489,685.
(e) Rigid co-polymer vinyl chloride-vinylidene chloride
(§4) The following compound was prepared:
The sheets were heated in a ventilated oven at 210° C. and the following results were obtained: […]

[5] = Antioxidant power on a polyvinyl chloride resin, Metrastat oven, 210° C.
Protocol: as §1, §2
The same trials were carried out in a Metrastat oven at 210° C.

[6] = Thermostability, rigid co-polymer (d), ventilated oven 210° C.; conditions: 0.3 part
Protocol: as §3
(d) Rigid co-polymer vinyl chloride-vinylidene chloride
as §4
The sheets were heated in a ventilated oven at 210° C.

[7] = Comparison with 2-phenyl-indole, vinyl chloride-vinyl acetate co-polymer, 185° C.; conditions: 0.3 part
Protocol: (c) Comparison with 2-phenyl-indole
A comparative test was made using the following compound:
The sheets were heated in a ventilated oven at 185° C. and the following results were obtained: […]

[8] = Photostabilizing power, tetrahydrofuran solution of plates exposed to the sun, French Pharmacopeia
Protocol: The photostabilizing power of the compounds of the invention was studied by exposing to the sun polyvinyl chloride plates which had been stabilized either by a dihydropyridine of the invention or by 2-phenyl-indole, or again by 2-(3'-methoxy-4'-hydroxy)-indole. This last product is an extremely valuable thermostabilizer for thermoplastic resins and is described in British Pat. No. 1,489,685.
The resin given hereunder was prepared by mixing on cylinders at 160° C.:
The plates of stabilized polyvinyl chloride, together with a plate which had not been stabilized, were stood in the sun under the same conditions and at the same time. Their colour was measured after 6 hours and 12 hours of exposure.
The coloration of the plates was determined according to two methods:
On a solution of these plates in tetrahydrofuran, the coloration of th solution being measured according to the French Pharmacopeia (IXth edition, II-338).

Compound: C=CCOC(=O)C1=C(C)NC(C)=C(C(=O)OCC=C)C1 [Compound 1, 2,6-Dimethyl-3,5-dicarboallyloxy-1,4-dihydropyridine]
- antioxidant power, Compound 1 vs Compound Z, in words [1]: superior to Compound Z at every concentration
- coloration, GARDNER scale ([2]; 0 min): 1
- coloration, GARDNER scale ([2]; 2 min): 1
- coloration, GARDNER scale ([2]; 4 min): 2
- coloration, GARDNER scale ([2]; 6 min): 3
- coloration, GARDNER scale ([2]; 10 min): 12
- coloration, GARDNER scale ([2]; 12 min): 18
- coloration, GARDNER scale ([2]; column without printed time, between 6 and 10 min): 7
- coloration, GARDNER scale ([3]; 0.05 part, 0 min): 1
- coloration, GARDNER scale ([3]; 0.05 part, 10 min): 1
- coloration, GARDNER scale ([3]; 0.05 part, 60 min): 7
- coloration, GARDNER scale ([3]; 0.05 part, 70 min): 8
- coloration, GARDNER scale ([3]; 0.1 part, 0 min): 1
- coloration, GARDNER scale ([3]; 0.1 part, 10 min): 1
- coloration, GARDNER scale ([3]; 0.1 part, 30 min): < 2
- coloration, GARDNER scale ([3]; 0.1 part, 60 min): 7
- coloration, GARDNER scale ([3]; 0.1 part, 70 min): 7
- coloration, GARDNER scale ([3]; 0.2 part, 0 min): 1
- coloration, GARDNER scale ([3]; 0.2 part, 10 min): 1
- coloration, GARDNER scale ([3]; 0.2 part, 20 min): 1
- coloration, GARDNER scale ([3]; 0.2 part, 40 min): 2
- coloration, GARDNER scale ([3]; 0.2 part, 50 min): 3
- coloration, GARDNER scale ([3]; 0.2 part, 60 min): 5
- coloration, GARDNER scale ([3]; 0.2 part, 70 min): > 6
- coloration, GARDNER scale ([3]; 0.3 part, 0 min): 1
- coloration, GARDNER scale ([3]; 0.3 part, 10 min): 1
- coloration, GARDNER scale ([3]; 0.3 part, 20 min): 1
- coloration, GARDNER scale ([3]; 0.3 part, 30 min): 1
- coloration, GARDNER scale ([3]; 0.3 part, 40 min): 2
- coloration, GARDNER scale ([3]; 0.3 part, 50 min): > 2
- coloration, GARDNER scale ([3]; 0.3 part, 60 min): 8
- coloration, GARDNER scale ([3]; 0.3 part, 70 min): 8
- coloration, GARDNER scale ([3]; 0.4 part, 0 min): 1
- coloration, GARDNER scale ([3]; 0.4 part, 10 min): 1
- coloration, GARDNER scale ([3]; 0.4 part, 20 min): 1
- coloration, GARDNER scale ([3]; 0.4 part, 30 min): 1
- coloration, GARDNER scale ([3]; 0.4 part, 60 min): 4
- coloration, GARDNER scale ([3]; 0.4 part, 70 min): 8
- coloration, GARDNER scale ([3]; 0.5 part, 0 min): 1
- coloration, GARDNER scale ([3]; 0.5 part, 10 min): 1
- coloration, GARDNER scale ([3]; 0.5 part, 20 min): 1
- coloration, GARDNER scale ([3]; 0.5 part, 30 min): > 1
- coloration, GARDNER scale ([3]; 1.0 part, 0 min): 1
- coloration, GARDNER scale ([3]; 1.0 part, 10 min): 1
- coloration, GARDNER scale ([3]; 1.0 part, 20 min): 1
- coloration, GARDNER scale ([3]; 1.0 part, 30 min): 1
- coloration, GARDNER scale ([3]; 1.0 part, 50 min): 4
- coloration, GARDNER scale ([3]; 1.0 part, 60 min): 8
- coloration, GARDNER scale ([4]; 0 min): 1
- coloration, GARDNER scale ([4]; 3 min): 1
- coloration, GARDNER scale ([4]; 6 min): 2
- coloration, GARDNER scale ([4]; 9 min): 4
- coloration, GARDNER scale ([4]; 12 min): 10
- time of burning (B) ([5]; 0.05 part): 40 '
- coloration, GARDNER scale ([5]; 0.05 part, 0 to 10 min): 1
- coloration, GARDNER scale ([5]; 0.05 part, 10 to 20 min): 1
- coloration, GARDNER scale ([5]; 0.05 part, 20 to 25 min): 1
- coloration, GARDNER scale ([5]; 0.05 part, 25 to 30 min): 1
- coloration, GARDNER scale ([5]; 0.05 part, 35 to 40 min): > 10
- time of burning (B) ([5]; 0.1 part): 38 '
- coloration, GARDNER scale ([5]; 0.1 part, 0 to 10 min): 1
- coloration, GARDNER scale ([5]; 0.1 part, 10 to 20 min): 1
- coloration, GARDNER scale ([5]; 0.1 part, 20 to 25 min): 1
- coloration, GARDNER scale ([5]; 0.1 part, 25 to 30 min): 1
- coloration, GARDNER scale ([5]; 0.1 part, 35 to 40 min): < 10
- time of burning (B) ([5]; 0.2 part): 39 '
- coloration, GARDNER scale ([5]; 0.2 part, 0 to 10 min): 1
- coloration, GARDNER scale ([5]; 0.2 part, 10 to 20 min): 1
- coloration, GARDNER scale ([5]; 0.2 part, 20 to 25 min): 1
- coloration, GARDNER scale ([5]; 0.2 part, 25 to 30 min): 1
- coloration, GARDNER scale ([5]; 0.2 part, 35 to 40 min): < 9
- time of burning (B) ([5]; 0.3 part): 39 '
- coloration, GARDNER scale ([5]; 0.3 part, 0 to 10 min): 1
- coloration, GARDNER scale ([5]; 0.3 part, 10 to 20 min): 1
- coloration, GARDNER scale ([5]; 0.3 part, 20 to 25 min): 1
- coloration, GARDNER scale ([5]; 0.3 part, 25 to 30 min): 1
- coloration, GARDNER scale ([5]; 0.3 part, 35 to 40 min): < 9
- time of burning (B) ([5]; 0.4 part): 38 '
- coloration, GARDNER scale ([5]; 0.4 part, 0 to 10 min): 1
- coloration, GARDNER scale ([5]; 0.4 part, 10 to 20 min): 1
- coloration, GARDNER scale ([5]; 0.4 part, 20 to 25 min): 1
- coloration, GARDNER scale ([5]; 0.4 part, 25 to 30 min): 1
- time of burning (B) ([5]; 0.5 part): 38 '
- coloration, GARDNER scale ([5]; 0.5 part, 0 to 10 min): 1
- coloration, GARDNER scale ([5]; 0.5 part, 10 to 20 min): 1
- coloration, GARDNER scale ([5]; 0.5 part, 20 to 25 min): 1
- coloration, GARDNER scale ([5]; 0.5 part, 25 to 30 min): 1
- time of burning (B) ([5]; 1.0 part): 37 '
- coloration, GARDNER scale ([5]; 1.0 part, 0 to 10 min): 1
- coloration, GARDNER scale ([5]; 1.0 part, 10 to 20 min): 1
- coloration, GARDNER scale ([5]; 1.0 part, 20 to 25 min): 1
- coloration, GARDNER scale ([5]; 1.0 part, 25 to 30 min): 1
- antioxidant power, Compound 1 vs Compound Z, in words ([5]; 210° C.): markedly superior to Compound Z

Compound: CC1=C(C(=O)OCc2ccccc2)CC(C(=O)OCc2ccccc2)=C(C)N1 [Compound 21, 2,6-Dimethyl-3,5-dicarbobenzyloxy-1,4-dihydropyridine]
- coloration, GARDNER scale ([6]; 0 min): 1.5
- coloration, GARDNER scale ([6]; 3 min): 2
- coloration, GARDNER scale ([6]; 6 min): 2
- coloration, GARDNER scale ([6]; 9 min): 3
- coloration, GARDNER scale ([6]; 12 min): 7
- coloration, GARDNER scale ([6]; 15 min): 15
- coloration, GARDNER scale ([7]; 0 min): 1
- coloration, GARDNER scale ([7]; 2 min): 1
- coloration, GARDNER scale ([7]; 4 min): 2
- coloration, GARDNER scale ([7]; 6 min): 3
- coloration, GARDNER scale ([7]; 8 min): 7
- coloration, GARDNER scale ([7]; 10 min): 10
- coloration, GARDNER scale ([7]; 12 min): 12
- coloration, GARDNER scale ([7]; 14 min): 16
- Coloration of the plates FRENCH PHARMACOPEIA ([8]; exposure to sun 0): JV6
- Coloration of the plates FRENCH PHARMACOPEIA ([8]; exposure to sun 6h): JV6
- Coloration of the plates FRENCH PHARMACOPEIA ([8]; exposure to sun 12h): JV5
